Blank lines part the entries; values can stand above or below the compound they belong to. Where no end group is shown, it is not given here.
How the values were obtained:
AKT = AKT activation in GBM cells; format: cell-based
SF295 cells [1] = test: wound-healing (migration) assay; format: cell-based; conditions: 8 μM, 24 hours
Protocol: (§1) (FIG. 8A) Wound-healing assay. Cells were plated confluently and then treated with PI3K isoform-selective inhibitors at 8 μM for 24 hours. Cells were imaged at 0- and 24-hour time point. Images of 24-hour time point are shown. Scale bar: […]. (FIG. 8B-8D) Quantification of migration distance. Images from three different areas were analyzed using Image J. Migration distances were obtained by subtracting 24-hour measurements with those of 0-hour.

LN229/GSCs [2] = test: wound-healing (migration) assay; format: cell-based; conditions: 8 μM, 24 hours
Protocol: as §1

p110β^hyper cells = test: melanoma cell viability (CellTiter Blue); format: cell-based; conditions: 0-40 μM of inhibitors; for selective inhibition of cell viability: p110β^hyper cells versus MelST
Protocol: (§2) (FIG. 49A) Immunoblotting of p110s and signaling molecules. 3-actin (ACTB) was used as the loading control. (FIG. 49B) Summary of genetic mutations and protein levels in melanoma cells. Information regarding hot spot mutations was retrieved from e.g., DepMap. (FIG. 49C) Cells were treated with 0-40 μM of inhibitors. Cell viability was measured using CellTiter Blue. IC50s were calculated using Graphpad.
(§3) (FIG. 52A) Cells were treated with 10 μM Selectide-18-FITC for 1 h and imaged immediately or after 96h. (FIG. 52B) Selectide-18-FITC in melanoma cells were imaged at different times. FITC was quantified using Image J and FITC intensities at different times were normalized with that at 1 h. Half-life was calculated using GraphPad. (FIG. 52C) UACC-62, MelST, or MeWo cells were treated with 50 μM of Selectide-18 for 4 days with daily repeated dosing. (FIG. 52D) MelST or melanoma cells were treated with 50 μM of Selectide-18 for 6 days with daily repeated dosing. Cell viability was measured using Cell-Titer Blue. (FIG. 52E) MelST, UACC-62, or MeWo cells were treated with Scramble or Selectide-18 at different doses. IC50s were calculated using GraphPad. (FIG. 52F) Nod scid mice bearing UACC-62 subcutaneous tumors were treated with Selectide-18 (3 mg/kg) intratumoral injection/daily) for 16 days. Tumors were measured using a caliper and tumor volumes were calculated as (length×width2))/2. Student t test or ANOVA was used to determine P values. ns: not significant; **: P<0.01; ***P<0.001.

PI3K in SK-MEL-94 cells = test: PI3K activity in melanoma cells (immunoblotting); format: cell-based; conditions: 10 μM AZD6482
PI3K in SK-MEL-147 cells = test: PI3K activity in melanoma cells (immunoblotting); format: cell-based; conditions: 10 μM AZD6482
MDA-MB-435S cells = test: melanoma cell viability (CellTiter Blue); format: cell-based; conditions: 0-40 μM, CellTiter Blue
Protocol: as §2, §3

tumor growth in mice = test: GBM tumor growth in mice; format: in vivo
LN229/GSCs [3] = test: TMZ sensitivity of LN229/GSCs; format: cell-based; conditions: Homo sapiens, LN-229
p110b = p110b (Homo sapiens, UniProt P42338); test: p110b activity ELISA (cell-free kinase assay); format: biochemical; conditions: ELISA; for activity of p110b: 100 nM, isolated protein subunit
Source text: The activity of the p110b PI3K catalytic subunit was monitored via ELISA upon increasing doses of Ante-Selectide-18.
(§4) Relative activity is the ratio of respective treated groups to their non-treated controls.
(FIG. 51A) 3D of a p110β/p85α complex determined by SWISS-MODEL and Cluspro. (FIG. 51B) Protein sequences were aligned using COBALT. C2 domains (top) are show. Red bars: same residues; Grey bars: different residues; Red lines: missing residues. […] in p110β C2 (bottom) is shown and termed as 018. Docking of p110β and p85α (FIG. 51C) or p110α and p85α (FIG. 51D) was done by SWISS-MODEL, Cluspro, and Chimera. The 018 motif is labeled in magenta. Deletion of β18 motif (FIG. 51E) changed the 3D shapes of p110β/p85 (FIG. 51C). (FIG. 51F) p110β cell-free kinase assay. An enzyme-linked immunosorbent assay (ELISA) was used to measure levels of lipids PIP2/PIP3. (FIG. 51G) Effect of PI3K inhibitors on p110s using ELISA. p110β (FIG. 51H) or p110α (FIG. 51I) was docked with Selectide-18-bound p85α using Cluspro/Chimera.
(§5) Applicant also included a control scramble peptide containing the antennapedia sequence followed by the amino acid sequence of Ante-Selectide-18 randomly scrambled. […] Applicant reports that this drug is not effective at inhibiting the kinase activity of p110b or other PI3K subunits at 100 nM, showing the promise of the Ante-Selectide-18 peptide as a potent selective p110b inhibitor at a low dose.

[4] = tested on: PI3K/AKT signaling in SF295 cells; test: immunoblotting of PI3K/AKT signaling in SF295 cells; format: cell-based; conditions: for AKT activity: 100 μM peptide
Protocol: SF295 cells were treated with 200 μM Ante-Selectide-18 for 4 days with a replenishment of fresh peptide every day. The vehicle was used as the control. PI3K/AKT signaling was analyzed using immunoblotting. Three signaling pathways (GSK3b, RAC1/CDC42, and MTOR) are shown. ACTB is the loading control.
Invasion molecules RAC1/CDC42 and MMPs are shown. Images were quantified using Image J. 0 h time point is set as 1.0. […] Apoptosis molecules FOXO3, BIM, and c-CASP3 are shown. (FIG. 9C) Invasion/survival signaling downstream of p110p.
(§6) (FIG. 12A) p110βC2in. CPP: cell-penetrating peptide. Simulated p110βC2in (rainbow as represented in greyscale) is shown. (FIG. 12B) FITC-p110βC2in in LN229/GSCs was imaged using a fluorescence microscope. Upper: FITC; lower: bright view. (FIG. 12C) PI3K/AKT activity affected by 100 μM p110βC2in (+) or C2Scramble-1 (−). (FIG. 12D) MTS Cell viability assay. Cells were treated with 50 μM peptides for 4 days. Student t test was used to determine P values.
In FIG. 3 Applicant tested whether Ante-Selectide-18 affects PI3K signaling in GBM cells. […] In contrast, another PI3K/AKT downstream target MTOR was not inhibited by this peptide.

p110γ = p110γ (Homo sapiens, UniProt P48736); test: PI3K subunit activity ELISA; format: biochemical; conditions: 100 nM
Protocol: as §4, §5

p110c = p110c (Homo sapiens, UniProt P42336); test: PI3K subunit activity ELISA; format: biochemical; conditions: 100 nM
Protocol: as §4, §5

p110δ = p110δ (Homo sapiens, UniProt O00329); test: PI3K subunit activity ELISA; format: biochemical; conditions: 100 nM
Protocol: as §4, §5

SF295 cells [5] = test: MTS cell viability assay; format: cell-based; conditions: 50 μM peptides, 4 days
Protocol: as §6
Cell viability was measured by the MTS assay. P values were determined using the student t test or one-way ANOVA. Error bars represent three independent experiments.
This scheme has been repeated in experiments presented hereafter. Cell viability was determined using the MTS viability assay. Percentages of cell viability were obtained by normalizing the MTS readings of treatment groups to that of DMSO group. (FIG. 34B) Scores of Excess Over Bliss (EOB) calculated using the Bliss Independence model. The drug combination is synergistic if EOB is more than 0%, additive if EOB equals to 0%, or antagonistic if EOB is less than 0%. […] (FIG. 34D) EOB scores of drug combinations in LN229 and VTC-001 cells. (FIG. 34E) Caspase 3/7 activity in VTC-103 and VTC-001 cells. The activity of cleaved caspase 3/7 (active) was determined using a luminescence assay. Shown are luminescence readings. (FIG. 34F) EOB scores of drug combinations in VTC-103 and VTC-001 cells. […] SF295 cells were subcutaneously injected into immuno-deficient mice. […] Tumor volumes are shown. […] Cell viability was determined using the MTS viability assay. Percentages of cell viability were obtained by normalizing the MTS readings of treatment groups to that of shNS group. […]
Cell viability was determined by the MTS cell viability assay (Promega) as described previously 21,24-27. […] At each hour time point, the absorbance at 490 nm was measured using a FilterMax F3 microplate reader (Molecular Devices, LLC) according to the manufacturer's instructions. Percent cell viability was obtained by dividing the absorbance of treatment groups to those of untreated and respective vehicle control groups.

[6] = 200 μM, 4 days, fresh peptide every day

Sequence of p110b (P42338 whole entry): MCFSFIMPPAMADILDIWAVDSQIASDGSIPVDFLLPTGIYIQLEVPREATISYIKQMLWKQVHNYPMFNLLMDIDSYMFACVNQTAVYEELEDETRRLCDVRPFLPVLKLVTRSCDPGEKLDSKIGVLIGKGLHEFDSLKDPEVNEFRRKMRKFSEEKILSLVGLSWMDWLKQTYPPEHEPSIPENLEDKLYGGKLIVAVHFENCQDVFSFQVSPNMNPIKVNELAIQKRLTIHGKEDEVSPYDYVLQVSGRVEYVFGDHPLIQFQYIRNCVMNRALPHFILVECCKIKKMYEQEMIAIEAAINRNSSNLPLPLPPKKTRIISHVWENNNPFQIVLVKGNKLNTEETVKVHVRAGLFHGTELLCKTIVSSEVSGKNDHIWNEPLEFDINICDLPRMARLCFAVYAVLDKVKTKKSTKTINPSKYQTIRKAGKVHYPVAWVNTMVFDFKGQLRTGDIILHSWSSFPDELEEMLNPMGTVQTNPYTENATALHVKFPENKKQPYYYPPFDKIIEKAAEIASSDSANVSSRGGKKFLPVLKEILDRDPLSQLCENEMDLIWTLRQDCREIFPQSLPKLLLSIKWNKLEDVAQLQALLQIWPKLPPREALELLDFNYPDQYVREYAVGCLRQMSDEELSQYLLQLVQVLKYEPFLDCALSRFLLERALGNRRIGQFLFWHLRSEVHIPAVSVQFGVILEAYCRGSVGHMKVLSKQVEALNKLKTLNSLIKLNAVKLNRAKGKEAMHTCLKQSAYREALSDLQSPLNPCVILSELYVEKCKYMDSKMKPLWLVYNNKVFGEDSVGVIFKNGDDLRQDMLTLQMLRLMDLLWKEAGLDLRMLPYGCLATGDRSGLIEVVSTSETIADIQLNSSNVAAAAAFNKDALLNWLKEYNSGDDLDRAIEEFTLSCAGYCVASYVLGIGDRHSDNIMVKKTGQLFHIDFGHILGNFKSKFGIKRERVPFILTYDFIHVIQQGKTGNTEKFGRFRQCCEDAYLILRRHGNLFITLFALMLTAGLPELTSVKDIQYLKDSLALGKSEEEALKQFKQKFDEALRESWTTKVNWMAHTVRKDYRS
Sequence of p110c (P42336 whole entry): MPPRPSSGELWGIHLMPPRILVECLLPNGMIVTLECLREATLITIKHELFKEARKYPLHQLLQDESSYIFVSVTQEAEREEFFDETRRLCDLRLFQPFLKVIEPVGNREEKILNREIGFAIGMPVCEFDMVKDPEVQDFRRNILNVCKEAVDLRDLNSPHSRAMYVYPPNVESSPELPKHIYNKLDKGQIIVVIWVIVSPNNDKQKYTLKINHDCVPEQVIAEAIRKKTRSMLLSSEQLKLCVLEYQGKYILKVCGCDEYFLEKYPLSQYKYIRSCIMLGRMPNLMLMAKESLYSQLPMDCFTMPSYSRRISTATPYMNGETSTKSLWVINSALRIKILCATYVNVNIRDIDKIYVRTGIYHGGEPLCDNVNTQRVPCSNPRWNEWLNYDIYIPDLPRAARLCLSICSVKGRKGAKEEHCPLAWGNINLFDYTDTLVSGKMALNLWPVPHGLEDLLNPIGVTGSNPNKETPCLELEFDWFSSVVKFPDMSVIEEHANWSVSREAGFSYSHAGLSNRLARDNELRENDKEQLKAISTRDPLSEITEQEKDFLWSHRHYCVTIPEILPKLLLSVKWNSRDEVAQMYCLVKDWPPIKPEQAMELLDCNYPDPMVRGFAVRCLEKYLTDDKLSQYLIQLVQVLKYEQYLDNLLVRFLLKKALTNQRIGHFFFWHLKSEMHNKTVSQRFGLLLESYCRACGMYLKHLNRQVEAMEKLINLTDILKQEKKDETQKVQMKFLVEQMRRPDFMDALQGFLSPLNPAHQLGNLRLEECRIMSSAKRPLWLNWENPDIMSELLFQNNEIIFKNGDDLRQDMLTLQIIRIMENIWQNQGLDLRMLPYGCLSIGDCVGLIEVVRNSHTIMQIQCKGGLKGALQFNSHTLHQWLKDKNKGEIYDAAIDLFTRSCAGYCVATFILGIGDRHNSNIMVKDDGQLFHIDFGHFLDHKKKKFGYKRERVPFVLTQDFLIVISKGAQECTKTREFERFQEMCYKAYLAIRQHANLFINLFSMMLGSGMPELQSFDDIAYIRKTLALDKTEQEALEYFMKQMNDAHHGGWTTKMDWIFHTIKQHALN
Sequence of p110γ (P48736 whole entry): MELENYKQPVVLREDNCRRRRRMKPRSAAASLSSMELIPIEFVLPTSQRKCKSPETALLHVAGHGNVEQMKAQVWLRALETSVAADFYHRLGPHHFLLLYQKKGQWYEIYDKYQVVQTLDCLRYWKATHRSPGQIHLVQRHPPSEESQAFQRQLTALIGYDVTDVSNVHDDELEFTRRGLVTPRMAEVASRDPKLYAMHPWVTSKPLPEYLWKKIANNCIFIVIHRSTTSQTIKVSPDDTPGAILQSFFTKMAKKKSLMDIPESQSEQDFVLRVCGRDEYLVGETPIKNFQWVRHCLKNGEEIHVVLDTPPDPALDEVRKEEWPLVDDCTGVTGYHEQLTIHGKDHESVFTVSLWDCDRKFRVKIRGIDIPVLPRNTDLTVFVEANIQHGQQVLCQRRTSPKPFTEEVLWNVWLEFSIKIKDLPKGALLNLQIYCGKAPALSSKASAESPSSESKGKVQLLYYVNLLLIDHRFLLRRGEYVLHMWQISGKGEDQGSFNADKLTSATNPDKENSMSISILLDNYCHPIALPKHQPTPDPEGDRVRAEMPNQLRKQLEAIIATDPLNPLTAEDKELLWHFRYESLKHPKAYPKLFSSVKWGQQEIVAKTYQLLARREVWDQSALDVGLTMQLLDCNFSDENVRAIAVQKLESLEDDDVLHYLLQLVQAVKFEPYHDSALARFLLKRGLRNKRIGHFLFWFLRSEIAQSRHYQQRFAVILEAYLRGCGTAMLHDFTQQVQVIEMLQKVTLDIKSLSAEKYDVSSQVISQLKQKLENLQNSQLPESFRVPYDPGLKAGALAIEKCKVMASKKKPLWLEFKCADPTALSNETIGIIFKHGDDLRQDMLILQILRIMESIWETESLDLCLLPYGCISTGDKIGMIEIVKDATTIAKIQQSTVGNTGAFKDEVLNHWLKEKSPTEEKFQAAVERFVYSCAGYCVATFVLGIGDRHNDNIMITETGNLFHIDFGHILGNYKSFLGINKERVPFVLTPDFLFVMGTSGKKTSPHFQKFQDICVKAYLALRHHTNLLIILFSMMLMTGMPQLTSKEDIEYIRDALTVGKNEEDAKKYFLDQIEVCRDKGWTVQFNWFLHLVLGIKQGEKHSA
Sequence of p110δ (O00329 whole entry): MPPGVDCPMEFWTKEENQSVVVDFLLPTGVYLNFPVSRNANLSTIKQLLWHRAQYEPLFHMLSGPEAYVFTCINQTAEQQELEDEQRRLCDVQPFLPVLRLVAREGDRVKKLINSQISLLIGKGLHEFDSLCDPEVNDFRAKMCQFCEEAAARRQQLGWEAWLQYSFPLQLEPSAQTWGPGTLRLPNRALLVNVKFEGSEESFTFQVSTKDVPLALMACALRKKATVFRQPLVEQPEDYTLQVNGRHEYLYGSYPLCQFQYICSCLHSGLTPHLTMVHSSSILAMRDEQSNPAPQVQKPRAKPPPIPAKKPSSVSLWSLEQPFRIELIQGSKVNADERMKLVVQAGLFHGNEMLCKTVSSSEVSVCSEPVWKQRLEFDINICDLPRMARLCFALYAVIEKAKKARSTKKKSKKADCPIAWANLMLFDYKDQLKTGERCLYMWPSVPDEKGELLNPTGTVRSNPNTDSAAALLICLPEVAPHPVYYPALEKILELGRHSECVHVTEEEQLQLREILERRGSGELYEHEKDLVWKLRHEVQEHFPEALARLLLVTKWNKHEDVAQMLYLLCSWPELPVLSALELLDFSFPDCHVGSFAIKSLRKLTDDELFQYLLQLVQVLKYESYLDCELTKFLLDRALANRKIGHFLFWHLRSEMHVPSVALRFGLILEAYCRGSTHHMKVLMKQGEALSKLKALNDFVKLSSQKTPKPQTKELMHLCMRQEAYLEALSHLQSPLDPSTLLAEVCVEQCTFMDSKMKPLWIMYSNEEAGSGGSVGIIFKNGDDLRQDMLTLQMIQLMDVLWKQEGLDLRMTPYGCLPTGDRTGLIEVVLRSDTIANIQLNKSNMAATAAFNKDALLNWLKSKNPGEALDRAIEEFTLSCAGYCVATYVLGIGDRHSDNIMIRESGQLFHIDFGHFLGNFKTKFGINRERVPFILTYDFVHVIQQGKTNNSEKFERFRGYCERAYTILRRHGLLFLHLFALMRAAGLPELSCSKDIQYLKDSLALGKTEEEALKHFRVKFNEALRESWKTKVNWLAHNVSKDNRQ
Sequence of p110δ (P27986 whole entry partner): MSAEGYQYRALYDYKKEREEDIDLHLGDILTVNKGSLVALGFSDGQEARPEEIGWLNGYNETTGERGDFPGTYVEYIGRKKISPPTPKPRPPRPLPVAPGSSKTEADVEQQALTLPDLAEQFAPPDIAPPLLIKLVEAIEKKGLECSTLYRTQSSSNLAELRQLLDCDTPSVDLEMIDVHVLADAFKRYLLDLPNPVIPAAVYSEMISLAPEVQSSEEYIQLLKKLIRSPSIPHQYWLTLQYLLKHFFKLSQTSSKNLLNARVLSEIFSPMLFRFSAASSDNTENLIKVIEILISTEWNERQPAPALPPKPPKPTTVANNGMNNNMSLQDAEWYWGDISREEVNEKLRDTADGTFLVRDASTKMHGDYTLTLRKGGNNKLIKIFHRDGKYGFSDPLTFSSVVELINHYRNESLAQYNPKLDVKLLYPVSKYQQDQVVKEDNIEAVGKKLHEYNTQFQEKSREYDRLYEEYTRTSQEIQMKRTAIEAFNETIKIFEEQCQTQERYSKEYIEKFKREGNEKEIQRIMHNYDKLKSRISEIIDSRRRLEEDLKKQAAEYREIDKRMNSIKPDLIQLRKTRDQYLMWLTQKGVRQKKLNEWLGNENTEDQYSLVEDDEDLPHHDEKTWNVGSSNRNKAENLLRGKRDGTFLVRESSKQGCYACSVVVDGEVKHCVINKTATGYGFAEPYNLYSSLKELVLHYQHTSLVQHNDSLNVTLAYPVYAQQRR

Compound: Cc1ccc([N+](=O)[O-])cc1S(=O)(=O)N(C)/N=C/c1cnc2ccc(Br)cn12 [PIK-75]
- AKT activation / selectivity (AKT): non-selectively inhibits AKT and ERK

Compound: Nc1cc(C(F)(F)F)c(-c2cc(N3CCOCC3)nc(N3CCOCC3)n2)cn1 [BKM120]
- cell migration (SF295 cells [1]): inhibited the migration
- cell migration (LN229/GSCs [2]): inhibited the migration

Compound: CC(C)(C)NS(=O)(=O)c1cncc(-c2cc(F)c3nc(N)nn3c2)c1 [CZC24832]
- selective inhibition of cell viability (p110β^hyper cells): did not show a selective inhibition of cell viability

Compound: Cc1cc([C@@H](C)Nc2ccccc2C(=O)O)c2nc(N3CCOCC3)cc(=O)n2c1 [AZD6482]
- PI3K activity (PI3K in SK-MEL-94 cells): inactivated PI3K
- PI3K activity (PI3K in SK-MEL-147 cells): not
- cytotoxicity (p110β^hyper cells; CellTiter Blue): cytotoxic
- sensitivity to AZD6482 (MDA-MB-435S cells): not sensitive and not

Compound: Nc1nc2cc(-c3ccc4ncc(C(=O)N5CCOCC5)n4c3)ccc2o1 [MLN1117]
- selective inhibition of cell viability (p110β^hyper cells): did not show a selective inhibition of cell viability

Compound: Cc1c(Cn2c(C)nc3c(C(=O)O)cc(N4CCOCC4)cc32)cccc1C(F)(F)F [GSK2636771]
- tumor growth in mice (tumor growth in mice): slow down tumor growth

- IC50 (LN229/GSCs [3]): 100 µM
Compound: Cn1nnc2c(C(N)=O)ncn2c1=O [TMZ, temozolomide]

- activity of p110b (p110b): didn't inactivate p110β
Compound: IYKTSKTRSQKTKIKPNT (Scrambled control peptide) [scrambled peptide]

- activity of PI3K subunit p110γ (p110γ): does not affect
- activity of PI3K subunit p110c (p110c): does not affect
- activity of PI3K subunit p110δ (p110δ): does not affect
- activity of p110b (p110b): inhibits the activity
- activity of p110b (p110b; listed as ante-Selectide-18): Only Inhibits p110b
- IC50 (p110b; increasing doses): 105 nM
Compound: RQPKIWFPNRRKPWKKTKKSTKTINPSKYQTIRK [Ante-Selectide-18]
- MTOR (PI3K/AKT downstream target) [4, 6]: not inhibited
- active forms of GSK3b and RAC1/CDC42 [4, 6]: remarkable decrease
- levels of phosphorylated form of AKT [4, 6]: substantially reduced

Compound: scramble peptide: control C2Scramble peptide, e.g. TYKTSKRISKQTIKKPNT fused with RRRRRRRR (IYKTSKTRSQKTKIKPNT)
- AKT activity [4]: not
- cell viability (SF295 cells [5]): not

Compound: RRRRRRRRTKKSTKTINPSKYQTIRK (p110bC2in - Selectide-18 with a cell penetrating peptide) [p110βC2in]
- AKT activity [4]: blocked AKT activity
- cell viability (SF295 cells [5]): suppressed cell viability
